# PubChem BioAssay (NCI)
#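 48-hour exposure; five concentrations; linearly interpolated endpoints. The concentration for 50% growth inhibition is given as GI50. TGI is the concentration that stops growth completely.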
# Experiments:
# Experiment in all cases: DTP human tumour cell line panel, 48 h
# OVCAR-8 ovarian = system: OVCAR-8 ovarian
# SK-MEL-28 melanoma = system: SK-MEL-28 melanoma
# KM12 colon = system: KM12 colon
# RPMI-8226 leukemia = system: RPMI-8226 leukemia
# M14 melanoma = system: M14 melanoma
# RXF 393 renal = system: RXF 393 renal
# NCI-H522 lung = system: NCI-H522 lung
# NCI-H23 lung = system: NCI-H23 lung
# HOP-62 NSCLC = system: HOP-62 NSCLC
# OVCAR-5 ovarian = system: OVCAR-5 ovarian
structure (smiles),measurement,setting,value
COC1OC(CO)C(O)C(NC(=O)N(C)N=O)C1O (centres undefined),TGI,OVCAR-8 ovarian,> 100 µM
same,TGI,SK-MEL-28 melanoma,> 100 µM
same,TGI,KM12 colon,> 100 µM
same,TGI,RPMI-8226 leukemia,> 100 µM
same,TGI,M14 melanoma,> 100 µM
same,TGI,RXF 393 renal,> 100 µM
same,TGI,NCI-H522 lung,> 100 µM
same,TGI,NCI-H23 lung,> 100 µM
CN1C(=O)CNS1(=O)=O,TGI,HOP-62 NSCLC,> 100 µM
same,TGI,OVCAR-8 ovarian,> 100 µM
same,TGI,OVCAR-5 ovarian,> 100 µM
same,TGI,SK-MEL-28 melanoma,> 100 µM
same,TGI,KM12 colon,> 100 µM
same,TGI,RPMI-8226 leukemia,> 100 µM
same,TGI,M14 melanoma,> 100 µM
same,TGI,RXF 393 renal,> 100 µM
same,TGI,NCI-H23 lung,> 100 µM
CO[C@@H]1[C@H](N(C)C(=O)c2ccccc2)C[C@@H]2O[C@]1(C)n1c3ccccc3c3c4c(c5c6ccccc6n2c5c31)C(=O)NC4=O,GI50,HOP-62 NSCLC,0.382 µM
same,TGI,HOP-62 NSCLC,> 100 µM
same,GI50,OVCAR-8 ovarian,94.6 µM
same,TGI,OVCAR-8 ovarian,> 100 µM
same,GI50,SK-MEL-28 melanoma,> 100 µM
same,TGI,SK-MEL-28 melanoma,> 100 µM
same,GI50,KM12 colon,0.391 µM
same,TGI,KM12 colon,> 100 µM
same,GI50,RPMI-8226 leukemia,> 100 µM
same,TGI,RPMI-8226 leukemia,> 100 µM
same,GI50,M14 melanoma,0.68 µM
same,TGI,M14 melanoma,> 100 µM
same,GI50,NCI-H23 lung,0.842 µM
same,TGI,NCI-H23 lung,> 100 µM
CSc1nc(SC)c2c(C)cn(Cc3ccccc3)c2n1,TGI,HOP-62 NSCLC,> 100 µM
same,TGI,OVCAR-8 ovarian,> 100 µM
same,TGI,OVCAR-5 ovarian,> 100 µM
same,TGI,SK-MEL-28 melanoma,> 100 µM
same,TGI,KM12 colon,> 100 µM
same,TGI,RPMI-8226 leukemia,> 100 µM
same,TGI,M14 melanoma,> 100 µM
same,TGI,NCI-H522 lung,> 100 µM
same,TGI,NCI-H23 lung,> 100 µM
CCOc1ccc(N=C2NC(=O)C(CC(=O)Nc3ccc(Cl)cc3Cl)S2)cc1 (centres undefined),TGI,HOP-62 NSCLC,> 100 µM
same,TGI,OVCAR-8 ovarian,> 100 µM
same,TGI,OVCAR-5 ovarian,> 100 µM
same,TGI,SK-MEL-28 melanoma,> 100 µM
same,TGI,KM12 colon,> 100 µM
same,TGI,RPMI-8226 leukemia,> 100 µM
same,TGI,M14 melanoma,> 100 µM
same,TGI,NCI-H23 lung,> 100 µM
C#CCOCCCC(=O)O,TGI,HOP-62 NSCLC,> 100 µM
same,TGI,OVCAR-8 ovarian,> 100 µM
same,TGI,OVCAR-5 ovarian,> 100 µM
same,TGI,SK-MEL-28 melanoma,> 100 µM
same,TGI,RPMI-8226 leukemia,> 100 µM
same,TGI,M14 melanoma,> 100 µM
same,TGI,RXF 393 renal,> 100 µM
same,TGI,NCI-H23 lung,> 100 µM
OCC(O)COc1ccc(F)cc1 (centres undefined),TGI,HOP-62 NSCLC,> 100 µM
same,TGI,OVCAR-8 ovarian,> 100 µM
same,TGI,OVCAR-5 ovarian,> 100 µM
same,TGI,SK-MEL-28 melanoma,> 100 µM
same,TGI,KM12 colon,> 100 µM
same,TGI,M14 melanoma,> 100 µM
same,TGI,RXF 393 renal,> 100 µM
same,TGI,NCI-H522 lung,> 100 µM
same,TGI,NCI-H23 lung,> 100 µM
O=P1(O)c2ccccc2CSCc2ccccc21,TGI,HOP-62 NSCLC,> 100 µM
same,TGI,OVCAR-8 ovarian,> 100 µM
same,TGI,OVCAR-5 ovarian,> 100 µM
same,TGI,SK-MEL-28 melanoma,> 100 µM
same,TGI,KM12 colon,> 100 µM
same,TGI,M14 melanoma,> 100 µM
same,TGI,RXF 393 renal,> 100 µM
same,TGI,NCI-H522 lung,> 100 µM
same,TGI,NCI-H23 lung,> 100 µM
CC1=CC=C2C(C)(C)CC[C@@H]3OC(=O)[C@H]1[C@]23C,TGI,HOP-62 NSCLC,> 100 µM
same,TGI,OVCAR-8 ovarian,> 100 µM
same,TGI,OVCAR-5 ovarian,> 100 µM
same,TGI,SK-MEL-28 melanoma,> 100 µM
same,TGI,KM12 colon,> 100 µM
same,TGI,M14 melanoma,> 100 µM
same,TGI,RXF 393 renal,> 100 µM
same,TGI,NCI-H522 lung,> 100 µM
same,TGI,NCI-H23 lung,> 100 µM
COC(=O)c1oc([N+](=O)[O-])c(-c2ccccc2)c1-c1ccccc1,TGI,HOP-62 NSCLC,> 100 µM
same,TGI,OVCAR-8 ovarian,> 100 µM
same,TGI,OVCAR-5 ovarian,> 100 µM
same,TGI,SK-MEL-28 melanoma,> 100 µM
same,TGI,KM12 colon,> 100 µM
same,TGI,RPMI-8226 leukemia,> 100 µM
same,TGI,M14 melanoma,> 100 µM
same,TGI,NCI-H522 lung,> 100 µM
same,TGI,NCI-H23 lung,> 100 µM
CCCCN(CCCC)C(=O)C(=O)C(C(=O)C(=O)OC)c1nc2ccccc2o1 (centres undefined),TGI,HOP-62 NSCLC,> 100 µM
same,TGI,OVCAR-8 ovarian,> 100 µM
same,TGI,OVCAR-5 ovarian,> 100 µM
same,TGI,SK-MEL-28 melanoma,> 100 µM
same,TGI,KM12 colon,> 100 µM
same,TGI,M14 melanoma,> 100 µM
same,TGI,RXF 393 renal,99 µM
same,TGI,NCI-H522 lung,> 100 µM
same,TGI,NCI-H23 lung,> 100 µM
O=C(O)COc1ccc2c3c1C(=O)CCC3CO2 (centres undefined),TGI,HOP-62 NSCLC,> 100 µM
same,TGI,OVCAR-8 ovarian,> 100 µM
same,TGI,OVCAR-5 ovarian,> 100 µM
same,TGI,SK-MEL-28 melanoma,> 100 µM
same,TGI,KM12 colon,> 100 µM
same,TGI,RPMI-8226 leukemia,> 100 µM
same,TGI,M14 melanoma,> 100 µM
same,TGI,NCI-H522 lung,> 100 µM
same,TGI,NCI-H23 lung,> 100 µM
Cc1cc2c(=O)cc(-c3ccc(C(=O)O)cc3)oc2c(C(N)=O)c1C,TGI,HOP-62 NSCLC,> 100 µM
same,TGI,OVCAR-8 ovarian,> 100 µM
same,TGI,OVCAR-5 ovarian,> 100 µM
same,TGI,SK-MEL-28 melanoma,> 100 µM
same,TGI,KM12 colon,> 100 µM
same,TGI,RPMI-8226 leukemia,> 100 µM
same,TGI,M14 melanoma,> 100 µM
same,TGI,NCI-H522 lung,> 100 µM
same,TGI,NCI-H23 lung,> 100 µM
Cc1cc(C)c2c(=O)cc(-c3ccc(F)cc3)[nH]c2n1,TGI,HOP-62 NSCLC,> 100 µM
same,TGI,OVCAR-8 ovarian,> 100 µM
same,TGI,OVCAR-5 ovarian,> 100 µM
same,TGI,SK-MEL-28 melanoma,> 100 µM
same,TGI,KM12 colon,49.9 µM
same,TGI,RPMI-8226 leukemia,> 100 µM
same,TGI,M14 melanoma,> 100 µM
same,TGI,NCI-H522 lung,> 100 µM
same,TGI,NCI-H23 lung,> 100 µM
O=[N+]([O-])c1cccc(C=NC23CC4CC(CC(C4)C2)C3)c1,TGI,HOP-62 NSCLC,> 100 µM
same,TGI,OVCAR-8 ovarian,> 100 µM
same,TGI,OVCAR-5 ovarian,> 100 µM
same,TGI,SK-MEL-28 melanoma,> 100 µM
same,TGI,KM12 colon,> 100 µM
same,TGI,M14 melanoma,> 100 µM
same,TGI,RXF 393 renal,> 100 µM
same,TGI,NCI-H522 lung,> 100 µM
same,TGI,NCI-H23 lung,> 100 µM
OC1CCC(COC(c2ccccc2)(c2ccccc2)c2ccccc2)O1 (centres undefined),TGI,HOP-62 NSCLC,33.9 µM
same,TGI,OVCAR-8 ovarian,35.8 µM
same,TGI,OVCAR-5 ovarian,45.2 µM
same,TGI,SK-MEL-28 melanoma,33.4 µM
same,TGI,KM12 colon,34.3 µM
same,TGI,RPMI-8226 leukemia,40.7 µM
same,TGI,M14 melanoma,32.7 µM
same,TGI,NCI-H522 lung,31.8 µM
same,TGI,NCI-H23 lung,35.4 µM
CCOC(=O)c1sc(Nc2cc(Cl)ccc2Cl)nc1C,TGI,HOP-62 NSCLC,> 100 µM
same,TGI,OVCAR-8 ovarian,> 100 µM
same,TGI,OVCAR-5 ovarian,> 100 µM
same,TGI,SK-MEL-28 melanoma,> 100 µM
same,TGI,KM12 colon,> 100 µM
same,TGI,RPMI-8226 leukemia,> 100 µM
same,TGI,RXF 393 renal,> 100 µM
same,TGI,NCI-H522 lung,> 100 µM
same,TGI,NCI-H23 lung,> 100 µM
CC(=O)Nc1ccc(S(=O)(=O)N/N=C/c2cc(I)cc([N+](=O)[O-])c2O)cc1,TGI,OVCAR-8 ovarian,> 100 µM
same,TGI,OVCAR-5 ovarian,> 100 µM
same,TGI,SK-MEL-28 melanoma,98.7 µM
same,TGI,KM12 colon,> 100 µM
same,TGI,RPMI-8226 leukemia,> 100 µM
same,TGI,M14 melanoma,> 100 µM
same,TGI,RXF 393 renal,85.2 µM
same,TGI,NCI-H23 lung,85 µM
O=C([CH-]C(=O)c1ccccc1)c1ccccc1.O=C([CH-]C(=O)c1ccccc1)c1ccccc1.[CH2-]CCC.[CH2-]CCC.[Sn+4],GI50,HOP-62 NSCLC,1.95 µM
same,TGI,HOP-62 NSCLC,3.41 µM
same,GI50,OVCAR-8 ovarian,0.939 µM
same,TGI,OVCAR-8 ovarian,2.46 µM
same,GI50,OVCAR-5 ovarian,2.06 µM
same,TGI,OVCAR-5 ovarian,3.51 µM
same,GI50,KM12 colon,0.728 µM
same,TGI,KM12 colon,2.28 µM
same,GI50,RPMI-8226 leukemia,0.11 µM
same,TGI,RPMI-8226 leukemia,0.334 µM
same,GI50,M14 melanoma,0.394 µM
same,TGI,M14 melanoma,1.59 µM
same,GI50,RXF 393 renal,0.128 µM
same,TGI,RXF 393 renal,0.416 µM
same,GI50,NCI-H522 lung,0.0293 µM
same,TGI,NCI-H522 lung,0.13 µM
CC(=O)NS(=O)(=O)c1ccc(-n2nc(-c3ccccc3)cc2-c2cc(O)ccc2O)cc1,GI50,HOP-62 NSCLC,> 100 µM
same,TGI,HOP-62 NSCLC,> 100 µM
same,GI50,OVCAR-8 ovarian,> 100 µM
same,TGI,OVCAR-8 ovarian,> 100 µM
same,GI50,OVCAR-5 ovarian,> 100 µM
same,TGI,OVCAR-5 ovarian,> 100 µM
same,GI50,SK-MEL-28 melanoma,> 100 µM
same,TGI,SK-MEL-28 melanoma,> 100 µM
same,GI50,KM12 colon,> 100 µM
same,TGI,KM12 colon,> 100 µM
same,GI50,RPMI-8226 leukemia,> 100 µM
same,TGI,RPMI-8226 leukemia,> 100 µM
same,GI50,M14 melanoma,31.4 µM
same,TGI,M14 melanoma,> 100 µM
same,GI50,NCI-H522 lung,45 µM
same,TGI,NCI-H522 lung,> 100 µM
same,GI50,NCI-H23 lung,> 100 µM
same,TGI,NCI-H23 lung,> 100 µM
c1ccc2c(CNCCCN3CCN(CCCNCc4cccc5ccccc45)CC3)cccc2c1,TGI,HOP-62 NSCLC,34.4 µM
same,TGI,OVCAR-8 ovarian,4.03 µM
same,TGI,OVCAR-5 ovarian,5.32 µM
same,TGI,SK-MEL-28 melanoma,3.06 µM
same,TGI,KM12 colon,3.7 µM
same,TGI,M14 melanoma,2.42 µM
same,TGI,RXF 393 renal,2.4 µM
same,TGI,NCI-H522 lung,2.99 µM
same,TGI,NCI-H23 lung,23.6 µM
ClCCN(CCCl)c1ccc(OCc2ccccc2)cc1,GI50,HOP-62 NSCLC,4.05 µM
same,TGI,HOP-62 NSCLC,30.4 µM
same,GI50,OVCAR-8 ovarian,3.3 µM
same,TGI,OVCAR-8 ovarian,75.7 µM
same,GI50,OVCAR-5 ovarian,29 µM
same,TGI,OVCAR-5 ovarian,> 100 µM
same,GI50,SK-MEL-28 melanoma,13.8 µM
same,TGI,SK-MEL-28 melanoma,40.9 µM
same,GI50,KM12 colon,14.2 µM
same,TGI,KM12 colon,36.7 µM
same,GI50,RPMI-8226 leukemia,3.79 µM
same,TGI,RPMI-8226 leukemia,36.5 µM
same,GI50,M14 melanoma,4.16 µM
same,TGI,M14 melanoma,42.2 µM
same,GI50,NCI-H522 lung,4.64 µM
same,TGI,NCI-H522 lung,21.9 µM
same,GI50,NCI-H23 lung,4.88 µM
same,TGI,NCI-H23 lung,36.6 µM
